{
  "source": "paper PMC8692993",
  "about": "“PPARα and PPARγ activation is associated with pleural mesothelioma invasion but therapeutic inhibition is ineffective” (iScience, 2021)",
  "key": {"[1]": {"biological_target": "T1, PPARα (Homo sapiens, UniProt Q07869)", "T1 sequence (Q07869 239-466 limits assumed)": "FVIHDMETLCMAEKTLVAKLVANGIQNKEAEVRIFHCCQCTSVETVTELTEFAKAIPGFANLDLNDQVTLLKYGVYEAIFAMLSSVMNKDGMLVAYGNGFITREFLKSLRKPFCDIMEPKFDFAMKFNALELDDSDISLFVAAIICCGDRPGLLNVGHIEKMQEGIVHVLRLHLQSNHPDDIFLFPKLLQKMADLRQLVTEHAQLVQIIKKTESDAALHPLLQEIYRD", "design": "expressed in transfected cells; host or cells: HG5LN (HeLa-derived, GAL4RE-luciferase); method as in Xu et al., 2002", "settings": "inhibition of agonism by 10 nM GW409544, ref Xu et al., 2002, read-out: Functionality, Lit. IC50; cited from earlier work"}, "[2]": {"test_system": "AB1", "assay": "MTT cell metabolic activity assay, AB1", "format": "cell-based, mouse", "settings": "AB1, 48 h, 0.391-100 μM; effect at higher micromolar concentrations", "experimental": "(§1) Cells were harvested and seeded in 96-flat well plates (Corning) at a density of 5 x 10^4 cells/mL overnight. Media was removed and 100 μL media with GW6471 or GW9662 at indicated concentrations was added to each well. Cell viability and toxicity were measured at 48 h. Cells were incubated with 50 μL of a 2 mg/mL solution of (3-(4,5-dimethyl-thiazole-2-yl)-2,5-[…] tetrazolium (MTT, Sigma-Aldrich) in PBS for 4 h and then exposed to 100 μL dimethyl sulfoxide (DMSO; Sigma-Aldrich). Cell viability was measured by absorption at 570 nm in a microplate spectrophotometer (Spectromax 250 plate reader). Results are shown as relative cell viability."}, "[3]": {"biological_target": "T1, PPARα", "assay": "HG5LN reporter cell assay, PPARα-mediated transcription", "format": "cell-based", "design": "expressed in transfected cells; host or cells: HG5LN (HeLa-derived, GAL4RE-luciferase)", "source_text": "Nuclear receptors, including PPARα and γ, are ligand-inducible transcription factors that form heterodimers with retinoid X receptors and bind to specific DNA sites located in the enhancer/promoter region of target genes, releasing co-repressors and/or recruiting co-activators ([Wang, 2010]). We therefore assessed the functional consequences of the ligands on PPARα and γ-mediated transcriptional activation in reporter cell lines. These cell lines were generated as previously reported by a two-step transfection procedure ([Seimandi et al., 2005]). First, a stable cell line, HG5LN, expressing the reporter gene (GAL4RE-luciferase) was developed from the HeLa cell line. These cells were then transfected with a plasmid expressing the C-terminal ligand-binding domain of PPARα or γ fused to GAL4 DNA-binding domain. The parental HG5LN cells were used as a control to test non-specific modulation of luciferase expression by the small molecules investigated (Figure S4A). The HG5LN PPAR reporter cells therefore allow comparison of the functional activity at, and selectivity of different ligands for, PPARα and γ. […] As expected ([Abu Aboud et al., 2015]), GW6471 potently antagonized PPARα (Figure 4E and Table 1).\nA transfected […] cell line HG5LN was used ([Balaguer et al., 2001]). These cells were cultured in Dubecco's modified Eagle's medium (DMEM-F12 Thermo Fisher Scientific) with phenol red and supplemented with 5% foetal calf serum, incubated at 37°C in a 5% CO2/95% air-humidified atmosphere. Luciferase assays were performed in DMEM-F12 (Thermo Fisher Scientific) without phenol red and supplemented with 5% dextran-coated charcoal-stripped FCS (test culture medium), puromycin (Thermo Fisher Scientific) 0.5 μg/mL and geneticin (Thermo Fisher Scientific) 1 mg/mL. Cells were seeded at a density of 5 x 10^4 cells/well and incubated for 8 h at 37°C in a 96-well plate white opaque tissue culture plates (Becton-Dickinson). Tested compounds were added in serial dilutions and incubated for 16 h at 37°C. After incubation, the medium containing the effectors was carefully removed and replaced by culture medium containing 3 x 10^−4 mol/L luciferin (Sigma Chemicals). After 5 min incubation at room temperature, the 96-well plate was then read with a Microbeta Wallac luminometer and the luminescence was measured in the living cells for 2 s. All experiments were performed in quadruplicate."}, "[4]": {"test_system": "VGE62", "assay": "MTT cell metabolic activity assay, VGE62", "format": "cell-based, human", "settings": "VGE62, 48 h, 0.391-100 μM; effect at higher micromolar concentrations", "experimental": "as §1"}, "[5]": {"test_system": "HAP1, HAP1 PPARA KO, and HAP1 PPARG KO cell lines", "assay": "Scratch wound migration assay, HAP1 lines", "format": "cell-based, human", "settings": "1 and 10 μM", "experimental": "Cells were harvested and seeded in Incucyte®ImageLock 96-well plates (Essen BioScience) at a density of 10 x 10^4 cells/mL overnight. A scratch wound was performed on the confluent cells with the 96-pin IncuCyte WoundMaker Tool (Essen BioScience). For migration assays, cells were washed with PBS once before adding 100 μL media with GW6471 at indicated concentrations. For matrigel invasion assays, cells were washed with PBS once before adding 50 μL of matrigel basement membrane matrix (FAL356231; Corning, NY, USA) at 8 mg/mL; lastly 100 μL media with GW6471 at indicated concentrations were added on top of the matrigel. Wounded cells were incubated in the IncuCyte ZOOM® at 37°C with 5% CO2. Data were analysed using the Incucyte® Scratch Wound Cell Migration Software Module and calculating the Relative Wound Density (%) (RWD) for both migration and invasion assays."}, "[6]": {"test_system": "HAP1, HAP1 PPARA KO, and HAP1 PPARG KO cell lines", "assay": "MTT cell metabolic activity assay, HAP1 lines", "format": "cell-based, human", "experimental": "as §1"}},
  "note": "Like-named read-outs stand apart in the source and are kept apart here.",
  "data": [
    {"smiles": "CCC(=O)NC[C@H](Cc1ccc(OCCc2nc(-c3ccccc3)oc2C)cc1)N/C(C)=C\\C(=O)c1ccc(C(F)(F)F)cc1", "note": "[GW6471]", "values": [
      {"measurement": "IC50", "setting": "[1]", "value": 240, "unit": "nM"},
      {"measurement": "Cell viability (MTT)", "setting": "[2]", "value": "lowered viability"},
      {"measurement": "Functionality, Type", "setting": "[3]", "value": "antagonist"},
      {"measurement": "IC50", "setting": "[3]; inhibition of agonism by 10 nM GW7647, 16 h incubation, mean of 3 experiments ± SEM", "value": "254 ± 96", "unit": "nM"},
      {"measurement": "Cell viability (MTT)", "setting": "[4]", "value": "lowered viability"},
      {"measurement": "Effect on migration compared between PPARA KO, PPARG KO and wild-type cells", "setting": "[5]", "value": "not significantly different"},
      {"measurement": "In vitro migration", "setting": "[5]; HAP1 lines", "value": "concentration-dependent effect on in vitro migration"},
      {"measurement": "Cellular proliferation (MTT)", "setting": "[6]; HAP1, HAP1 PPARA KO, HAP1 PPARG KO, 0.391-100 μM", "value": "inhibited cellular proliferation at micromolar concentrations"},
      {"measurement": "Growth inhibition compared between parental and PPARA/PPARG KO cells", "setting": "[6]; HAP1 versus HAP1 PPARA KO and HAP1 PPARG KO", "value": "identical"}
    ]}
  ]
}
